Measured values published in PubChem BioAssay (NCI).
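Here, GI50 denotes the concentration required for 50% inhibition of growth. At the TGI there is no net growth.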

Assays:
Test in all cases: DTP human tumour cell line panel, 384-well format
[1] = test system: 786-0 renal
[2] = test system: A498 renal
[3] = test system: A549 NSCLC
[4] = test system: ACHN renal
[5] = test system: BT-549 breast
[6] = test system: CAKI-1 renal
[7] = test system: CCRF-CEM leukemia
[8] = test system: COLO 205 colon
[9] = test system: DU-145 prostate
[10] = test system: HCC-2998 colon
[11] = test system: HCT-116 colon
[12] = test system: HCT-15 colon
[13] = test system: HL-60(TB) leukemia
[14] = test system: HOP-62 NSCLC
[15] = test system: HOP-92 NSCLC
[16] = test system: HT29 colon
[17] = test system: IGROV1 ovarian
[18] = test system: K-562 leukemia
[19] = test system: KM12 colon
[20] = test system: LOX IMVI melanoma
[21] = test system: M14 melanoma
[22] = test system: MALME-3M melanoma
[23] = test system: MCF7 breast
[24] = test system: MDA-MB-435 melanoma
[25] = test system: MDA-MB-468 breast
[26] = test system: MOLT-4 leukemia
[27] = test system: NCI-H226 lung
[28] = test system: NCI-H23 lung
[29] = test system: NCI-H322M lung
[30] = test system: NCI-H460 NSCLC
[31] = test system: NCI-H522 lung
[32] = test system: NCI/ADR-RES ovarian
[33] = test system: OVCAR-4 ovarian
[34] = test system: OVCAR-5 ovarian
[35] = test system: OVCAR-8 ovarian
[36] = test system: PC-3 prostate
[37] = test system: RPMI-8226 leukemia
[38] = test system: RXF 393 renal
[39] = test system: SF-268 CNS
[40] = test system: SF-295 CNS
[41] = test system: SF-539 CNS
[42] = test system: SK-MEL-2 melanoma
[43] = test system: SK-MEL-28 melanoma
[44] = test system: SK-MEL-5 melanoma
[45] = test system: SK-OV-3 ovarian
[46] = test system: SN12C renal
[47] = test system: SNB-19 CNS
[48] = test system: SR leukemia
[49] = test system: SW-620 colon
[50] = test system: T-47D breast
[51] = test system: TK-10 renal
[52] = test system: U251 glioblastoma
[53] = test system: UACC-257 melanoma
[54] = test system: UACC-62 melanoma
[55] = test system: UO-31 renal

SMILES: C/C(=N\NC(=O)c1cccc(S(=O)(=O)N2CCN(C)CC2)c1)c1cc(Cl)ccc1O
- GI50 [1]: 345 nM
- TGI [1]: 2210 nM
- GI50 [2]: 268 nM
- TGI [2]: 20100 nM
- GI50 [3]: 447 nM
- TGI [3]: > 100000 nM
- GI50 [4]: 627 nM
- TGI [4]: 13400 nM
- GI50 [5]: 351 nM
- TGI [5]: 4190 nM
- GI50 [6]: 472 nM
- TGI [6]: 10200 nM
- GI50 [7]: 216 nM
- TGI [7]: 1070 nM
- GI50 [8]: 236 nM
- TGI [8]: 594 nM
- GI50 [9]: 534 nM
- TGI [9]: 11600 nM
- GI50 [10]: 54.5 nM
- TGI [10]: 15000 nM
- GI50 [11]: 425 nM
- TGI [11]: 2020 nM
- GI50 [12]: 301 nM
- TGI [12]: 12900 nM
- GI50 [13]: 442 nM
- TGI [13]: 1220 nM
- GI50 [14]: 142 nM
- TGI [14]: 898 nM
- GI50 [15]: 573 nM
- TGI [15]: 6820 nM
- GI50 [16]: 439 nM
- TGI [16]: 13600 nM
- GI50 [17]: 339 nM
- TGI [17]: 2750 nM
- GI50 [18]: 2620 nM
- TGI [18]: 13800 nM
- GI50 [19]: 541 nM
- TGI [19]: 14700 nM
- GI50 [20]: 644 nM
- TGI [20]: 2030 nM
- GI50 [21]: 247 nM
- TGI [21]: 1990 nM
- GI50 [22]: 641 nM
- TGI [22]: 8520 nM
- GI50 [23]: 594 nM
- TGI [23]: 8010 nM
- GI50 [24]: 557 nM
- TGI [24]: 74200 nM
- GI50 [25]: 177 nM
- TGI [25]: 382 nM
- GI50 [26]: 114 nM
- TGI [26]: 240 nM
- GI50 [27]: 523 nM
- TGI [27]: 3450 nM
- GI50 [28]: 236 nM
- TGI [28]: 590 nM
- GI50 [29]: 231 nM
- TGI [29]: 32000 nM
- GI50 [30]: 296 nM
- TGI [30]: 1210 nM
- GI50 [31]: 471 nM
- TGI [31]: 12000 nM
- GI50 [32]: 777 nM
- TGI [32]: 2360 nM
- GI50 [33]: 201 nM
- TGI [33]: 29000 nM
- GI50 [34]: 455 nM
- TGI [34]: 35300 nM
- GI50 [35]: 477 nM
- TGI [35]: 1950 nM
- GI50 [36]: 1160 nM
- TGI [36]: 17400 nM
- GI50 [37]: 339 nM
- TGI [37]: 1180 nM
- GI50 [38]: 43 nM
- TGI [38]: 557 nM
- GI50 [39]: 141 nM
- TGI [39]: 2150 nM
- GI50 [40]: 250 nM
- TGI [40]: 1310 nM
- GI50 [41]: 442 nM
- TGI [41]: 3310 nM
- GI50 [42]: 567 nM
- TGI [42]: 3580 nM
- GI50 [43]: 134 nM
- TGI [43]: 14300 nM
- GI50 [44]: 62 nM
- TGI [44]: 441 nM
- GI50 [45]: 422 nM
- TGI [45]: 57200 nM
- GI50 [46]: 735 nM
- TGI [46]: 3360 nM
- GI50 [47]: 1060 nM
- TGI [47]: 6020 nM
- GI50 [48]: 144 nM
- TGI [48]: 287 nM
- GI50 [49]: 1640 nM
- TGI [49]: 19000 nM
- GI50 [50]: 657 nM
- TGI [50]: 9270 nM
- GI50 [51]: 642 nM
- TGI [51]: 19800 nM
- GI50 [52]: 478 nM
- TGI [52]: 8250 nM
- GI50 [53]: 521 nM
- TGI [53]: 3980 nM
- GI50 [54]: 544 nM
- TGI [54]: 2860 nM
- GI50 [55]: 489 nM
- TGI [55]: 8090 nM
